Here are results for 13 compounds from the Kinase Knowledgebase extract (Sharma et al. 2016).

Test [1] deals with PIK3CA (human) (UniProt P42336). Nature of the test: Assessment of PIK3CA Kinase Activity Using Homogenous Solution Phase Assay.
The target is the same in test [2]. Briefly: Assessment of PIK3CA Kinase Activity Using One Step Solid Phase Assay.

Chain of PIK3CA (human) (P42336 whole entry, looked up): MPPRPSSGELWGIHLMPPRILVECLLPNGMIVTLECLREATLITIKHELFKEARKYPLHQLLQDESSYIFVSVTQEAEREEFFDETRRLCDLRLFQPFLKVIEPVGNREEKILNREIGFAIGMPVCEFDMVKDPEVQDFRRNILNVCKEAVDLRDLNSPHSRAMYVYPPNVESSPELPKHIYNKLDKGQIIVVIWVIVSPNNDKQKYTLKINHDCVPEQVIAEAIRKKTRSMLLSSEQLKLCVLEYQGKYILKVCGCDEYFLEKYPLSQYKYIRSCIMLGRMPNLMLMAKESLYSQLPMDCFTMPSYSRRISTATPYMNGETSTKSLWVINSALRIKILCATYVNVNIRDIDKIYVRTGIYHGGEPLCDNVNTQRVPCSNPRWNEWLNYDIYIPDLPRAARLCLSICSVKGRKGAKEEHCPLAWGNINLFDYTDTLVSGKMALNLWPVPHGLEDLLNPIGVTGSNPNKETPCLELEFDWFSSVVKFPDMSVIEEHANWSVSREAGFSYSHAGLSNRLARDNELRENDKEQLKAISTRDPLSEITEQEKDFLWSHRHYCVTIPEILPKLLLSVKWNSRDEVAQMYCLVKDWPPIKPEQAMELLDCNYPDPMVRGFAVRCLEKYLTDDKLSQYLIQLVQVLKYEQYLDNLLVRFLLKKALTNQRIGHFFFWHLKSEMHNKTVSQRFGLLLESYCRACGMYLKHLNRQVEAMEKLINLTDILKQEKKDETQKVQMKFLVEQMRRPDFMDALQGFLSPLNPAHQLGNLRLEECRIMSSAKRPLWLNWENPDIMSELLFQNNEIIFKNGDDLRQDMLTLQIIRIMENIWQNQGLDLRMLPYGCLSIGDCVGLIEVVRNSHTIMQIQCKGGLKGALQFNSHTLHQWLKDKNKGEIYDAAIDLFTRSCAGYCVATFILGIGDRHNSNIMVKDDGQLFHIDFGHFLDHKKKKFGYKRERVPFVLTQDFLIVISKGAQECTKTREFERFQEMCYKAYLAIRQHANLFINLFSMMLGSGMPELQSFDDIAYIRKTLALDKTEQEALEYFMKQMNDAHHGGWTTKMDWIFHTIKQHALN

As to `COCCNc1cc(-c2cccc(O)c2)nc(N2CCOCC2)n1`, the IC50 on PIK3CA (human) [1] and against PIK3CA (human) [2] was less than 20 µM each time.
On to `Cc1ccc(-c2cc(Nc3cccnc3)nc(N3CCOCC3)n2)cc1O`, for which the IC50 against PIK3CA (human) [1] and on PIK3CA (human) [2] was less than 20 µM throughout.
Take `COc1cccc(-c2cc(N3CCOCC3)nc(N3CCOCC3)n2)c1`: the half-inhibitory concentration (IC50) on PIK3CA (human) [1] and against PIK3CA (human) [2] was less than 20 µM each time.
On to `Oc1cccc(-c2cc(Nc3cccnc3)nc(N3CCOCC3)n2)c1F`, for which the IC50 against PIK3CA (human) [1] and at PIK3CA (human) [2] was less than 20 µM each time.
On to `COC(=O)Oc1cccc(-c2cc(Nc3cccnc3)nc(N3CCOCC3)n2)c1`, for which the IC50 against PIK3CA (human) [1] and on PIK3CA (human) [2] was less than 20 µM each time.
Regarding `Oc1cccc(-c2cc(Nc3ccc(O)nc3)nc(N3CCOCC3)n2)c1`, the IC50 against PIK3CA (human) [1] and against PIK3CA (human) [2] was less than 20 µM throughout.
For `CC(C)C(=O)Oc1cccc(-c2cc(Nc3cccnc3)nc(N3CCOCC3)n2)c1`, the IC50 on PIK3CA (human) [1] and at PIK3CA (human) [2] was less than 20 µM in each case.
Consider `Oc1cccc(-c2cc(N3CCCNCC3)nc(N3CCOCC3)n2)c1`, for which the IC50 on PIK3CA (human) [1] and at PIK3CA (human) [2] was less than 20 µM each time.
With `O=[N+]([O-])c1ccc(N2CCN(c3cc(-c4cccc(O)c4)nc(N4CCOCC4)n3)CC2)cc1`, the IC50 against PIK3CA (human) [1] and on PIK3CA (human) [2] was less than 20 µM throughout.
Take `CS(=O)(=O)Nc1cccc(-c2cc(Nc3cccnc3)nc(N3CCOCC3)n2)c1`: the IC50 against PIK3CA (human) [1] and on PIK3CA (human) [2] was less than 20 µM throughout.
Regarding `C[C@@H](Nc1cc(-c2cccc(O)c2)nc(N2CCOCC2)n1)c1ccccc1`, the IC50 at PIK3CA (human) [1] and at PIK3CA (human) [2] was less than 20 µM in each case.
Consider `Nc1cccc(-c2cc(Nc3cccnc3)nc(N3CCOCC3)n2)c1`, for which the IC50 at PIK3CA (human) [1] and against PIK3CA (human) [2] was less than 20 µM in each case.
With `c1cc(OCCN2CCCCC2)cc(-c2cc(Nc3ccc4[nH]ncc4c3)nc(N3CCOCC3)n2)c1`, the IC50 against PIK3CA (human) [1] and on PIK3CA (human) [2] was less than 20 µM each time.
